Active and inactive are the calls of the source.
Experiments:
[1] = restored growth of temperature-sensitive Burl-1 yeast – whole organism, S. cerevisiae, Burl-1 ts mutant, luminescence, counter-screen for SUMOylation pathway inhibitor project, dose response (AID 463199); format: functional
[2] = biological target: T1, Dual specificity protein phosphatase 3 (Homo sapiens, UniProt P51452); test: VHR1 phosphatase inhibitors, primary screen, biochemical, absorbance, uHTS (AID 1654)
[3] = biological target: T2, Voltage-gated N-type calcium channel alpha-1B subunit/Amyloid beta A4 precursor protein-binding family A member 1 (Homo sapiens, UniProt Q00975+Q02410); format: protein assay
T2 sequence (Q00975 whole entry): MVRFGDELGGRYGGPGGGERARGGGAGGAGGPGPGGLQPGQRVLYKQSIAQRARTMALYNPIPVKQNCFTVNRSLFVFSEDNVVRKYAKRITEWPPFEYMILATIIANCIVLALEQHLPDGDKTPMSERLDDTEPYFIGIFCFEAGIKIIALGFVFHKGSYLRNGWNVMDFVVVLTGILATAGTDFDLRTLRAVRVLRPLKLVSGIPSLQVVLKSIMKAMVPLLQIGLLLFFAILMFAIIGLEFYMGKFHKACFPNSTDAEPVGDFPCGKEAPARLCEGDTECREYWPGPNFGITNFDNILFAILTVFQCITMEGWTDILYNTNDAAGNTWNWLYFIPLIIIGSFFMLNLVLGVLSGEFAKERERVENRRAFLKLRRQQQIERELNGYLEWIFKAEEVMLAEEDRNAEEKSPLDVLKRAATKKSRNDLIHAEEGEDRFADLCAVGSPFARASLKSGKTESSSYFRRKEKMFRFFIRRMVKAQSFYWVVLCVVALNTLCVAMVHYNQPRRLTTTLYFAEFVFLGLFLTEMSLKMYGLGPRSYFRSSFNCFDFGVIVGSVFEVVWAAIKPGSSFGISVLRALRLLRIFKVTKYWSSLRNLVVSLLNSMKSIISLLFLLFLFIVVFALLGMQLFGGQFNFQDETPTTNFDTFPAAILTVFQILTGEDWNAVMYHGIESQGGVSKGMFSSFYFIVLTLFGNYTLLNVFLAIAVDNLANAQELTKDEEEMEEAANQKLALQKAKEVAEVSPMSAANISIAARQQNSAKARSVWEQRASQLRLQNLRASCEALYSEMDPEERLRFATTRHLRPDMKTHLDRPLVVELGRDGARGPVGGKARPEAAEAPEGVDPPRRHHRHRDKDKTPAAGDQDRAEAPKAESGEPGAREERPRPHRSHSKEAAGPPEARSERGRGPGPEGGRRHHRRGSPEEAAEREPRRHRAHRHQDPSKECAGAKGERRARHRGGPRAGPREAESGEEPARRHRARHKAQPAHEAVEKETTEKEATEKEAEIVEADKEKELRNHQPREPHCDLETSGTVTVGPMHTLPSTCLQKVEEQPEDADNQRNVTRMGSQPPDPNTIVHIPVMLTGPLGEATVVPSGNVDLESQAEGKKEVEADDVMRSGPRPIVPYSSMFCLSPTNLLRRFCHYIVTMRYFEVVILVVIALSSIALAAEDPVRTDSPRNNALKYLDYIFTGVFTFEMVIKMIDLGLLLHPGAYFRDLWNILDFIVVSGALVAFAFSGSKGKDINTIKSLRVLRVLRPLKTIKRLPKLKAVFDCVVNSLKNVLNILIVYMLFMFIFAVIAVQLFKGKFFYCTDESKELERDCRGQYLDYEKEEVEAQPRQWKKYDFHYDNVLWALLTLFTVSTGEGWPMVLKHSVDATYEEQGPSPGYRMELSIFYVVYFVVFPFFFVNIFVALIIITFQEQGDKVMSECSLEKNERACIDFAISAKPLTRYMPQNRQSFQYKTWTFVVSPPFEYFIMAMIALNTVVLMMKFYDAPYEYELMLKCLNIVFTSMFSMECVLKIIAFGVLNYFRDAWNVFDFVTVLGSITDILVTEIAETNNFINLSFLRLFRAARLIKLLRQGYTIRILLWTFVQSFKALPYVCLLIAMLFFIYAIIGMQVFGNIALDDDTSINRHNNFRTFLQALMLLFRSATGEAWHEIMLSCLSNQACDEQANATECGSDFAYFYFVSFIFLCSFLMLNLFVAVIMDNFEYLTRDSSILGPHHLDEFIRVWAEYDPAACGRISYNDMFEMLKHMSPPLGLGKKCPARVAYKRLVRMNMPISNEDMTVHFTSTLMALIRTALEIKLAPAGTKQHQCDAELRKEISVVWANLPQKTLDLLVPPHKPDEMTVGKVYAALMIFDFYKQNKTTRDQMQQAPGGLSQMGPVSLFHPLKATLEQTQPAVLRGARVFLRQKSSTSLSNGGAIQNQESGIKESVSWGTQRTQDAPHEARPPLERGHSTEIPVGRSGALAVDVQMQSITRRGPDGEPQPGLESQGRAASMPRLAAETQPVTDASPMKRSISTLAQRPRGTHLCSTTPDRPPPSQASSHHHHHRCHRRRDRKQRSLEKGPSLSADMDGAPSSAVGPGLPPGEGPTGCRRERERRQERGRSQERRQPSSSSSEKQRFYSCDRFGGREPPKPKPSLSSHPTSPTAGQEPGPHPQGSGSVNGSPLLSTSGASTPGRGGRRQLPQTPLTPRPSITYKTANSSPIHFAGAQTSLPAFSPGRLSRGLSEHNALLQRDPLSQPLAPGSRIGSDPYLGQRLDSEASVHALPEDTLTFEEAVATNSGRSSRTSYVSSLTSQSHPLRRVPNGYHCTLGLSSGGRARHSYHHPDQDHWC
T2 sequence (Q02410 whole entry): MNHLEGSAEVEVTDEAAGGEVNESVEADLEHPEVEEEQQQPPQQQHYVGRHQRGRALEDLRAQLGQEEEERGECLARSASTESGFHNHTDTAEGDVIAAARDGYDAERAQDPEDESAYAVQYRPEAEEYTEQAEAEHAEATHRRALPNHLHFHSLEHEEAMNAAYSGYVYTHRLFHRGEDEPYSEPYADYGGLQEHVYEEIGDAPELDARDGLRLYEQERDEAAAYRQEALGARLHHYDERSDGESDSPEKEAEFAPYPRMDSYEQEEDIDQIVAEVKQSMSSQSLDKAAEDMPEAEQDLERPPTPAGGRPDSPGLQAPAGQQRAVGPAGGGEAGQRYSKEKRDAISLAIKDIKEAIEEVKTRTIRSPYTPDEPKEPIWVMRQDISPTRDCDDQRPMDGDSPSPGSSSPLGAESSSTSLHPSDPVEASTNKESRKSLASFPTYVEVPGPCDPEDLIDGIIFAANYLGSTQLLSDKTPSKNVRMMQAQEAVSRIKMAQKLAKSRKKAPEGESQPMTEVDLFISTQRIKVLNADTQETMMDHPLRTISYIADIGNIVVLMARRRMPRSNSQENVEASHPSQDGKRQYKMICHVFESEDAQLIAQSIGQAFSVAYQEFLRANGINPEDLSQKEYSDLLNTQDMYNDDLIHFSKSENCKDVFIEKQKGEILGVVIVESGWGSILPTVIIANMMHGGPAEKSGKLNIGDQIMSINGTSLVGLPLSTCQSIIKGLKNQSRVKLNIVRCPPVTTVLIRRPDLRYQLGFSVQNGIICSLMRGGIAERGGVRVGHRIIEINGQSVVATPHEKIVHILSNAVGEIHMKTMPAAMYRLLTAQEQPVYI

[4] = biological target: E3 ubiquitin-protein ligase XIAP (Homo sapiens, UniProt P98170); test: Counter Screen using XIAP-Bir3 for Chemical Antagonists of Bir1/2 domains of IAP-family anti-apoptotic proteins. [Related pubchem assays (depositor defined):AID1018, AID1449, AID1514, AID1638, AID1749, AID1750, AID488957, AID488963]
E3 ubiquitin-protein ligase XIAP, sequence (P98170 whole entry): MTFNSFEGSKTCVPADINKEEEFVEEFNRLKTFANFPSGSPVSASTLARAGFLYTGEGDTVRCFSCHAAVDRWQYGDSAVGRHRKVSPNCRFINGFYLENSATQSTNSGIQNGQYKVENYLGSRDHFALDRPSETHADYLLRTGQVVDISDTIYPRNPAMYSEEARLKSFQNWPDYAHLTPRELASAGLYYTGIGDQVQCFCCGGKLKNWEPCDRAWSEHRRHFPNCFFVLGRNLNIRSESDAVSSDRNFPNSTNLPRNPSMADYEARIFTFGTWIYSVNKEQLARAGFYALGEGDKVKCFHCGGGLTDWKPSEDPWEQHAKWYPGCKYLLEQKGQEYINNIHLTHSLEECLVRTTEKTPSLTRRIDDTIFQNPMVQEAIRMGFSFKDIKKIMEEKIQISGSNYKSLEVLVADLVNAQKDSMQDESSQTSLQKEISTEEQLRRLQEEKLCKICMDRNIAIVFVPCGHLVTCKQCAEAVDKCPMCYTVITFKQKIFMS

[5] = biological target: T2, Voltage-gated N-type calcium channel alpha-1B subunit/Amyloid beta A4 precursor protein-binding family A member 1; format: protein assay; remark: listed apart in the source
[6] = biological target: T1, Dual specificity protein phosphatase 3; test: VHR1 phosphatase inhibitors, biochemical (AID 1878)
[7] = biological target: T3, Dual specificity protein phosphatase 6 (Rattus norvegicus, UniProt Q64346); test: inhibition of rat DUSP6 enzyme activity – biochemical, in vitro, primary screen (AID 425)
T3 sequence (Q64346 whole entry): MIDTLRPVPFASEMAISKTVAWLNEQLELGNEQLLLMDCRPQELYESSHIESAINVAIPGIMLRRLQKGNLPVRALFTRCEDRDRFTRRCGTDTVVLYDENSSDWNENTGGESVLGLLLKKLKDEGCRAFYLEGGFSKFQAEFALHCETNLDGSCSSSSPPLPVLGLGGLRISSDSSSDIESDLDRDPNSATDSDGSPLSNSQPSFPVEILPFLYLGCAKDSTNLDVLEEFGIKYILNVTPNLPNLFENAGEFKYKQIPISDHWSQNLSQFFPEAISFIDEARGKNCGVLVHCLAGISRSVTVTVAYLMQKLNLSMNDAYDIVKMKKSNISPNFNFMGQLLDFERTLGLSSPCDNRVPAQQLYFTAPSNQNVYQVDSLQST

[8] = biological target: T4, Mannose-6-phosphate isomerase (Homo sapiens, UniProt P34949); test: phosphomannose isomerase inhibition – biochemical, fluorescence intensity, confirmation (AID 1535)
T4 sequence (P34949 whole entry): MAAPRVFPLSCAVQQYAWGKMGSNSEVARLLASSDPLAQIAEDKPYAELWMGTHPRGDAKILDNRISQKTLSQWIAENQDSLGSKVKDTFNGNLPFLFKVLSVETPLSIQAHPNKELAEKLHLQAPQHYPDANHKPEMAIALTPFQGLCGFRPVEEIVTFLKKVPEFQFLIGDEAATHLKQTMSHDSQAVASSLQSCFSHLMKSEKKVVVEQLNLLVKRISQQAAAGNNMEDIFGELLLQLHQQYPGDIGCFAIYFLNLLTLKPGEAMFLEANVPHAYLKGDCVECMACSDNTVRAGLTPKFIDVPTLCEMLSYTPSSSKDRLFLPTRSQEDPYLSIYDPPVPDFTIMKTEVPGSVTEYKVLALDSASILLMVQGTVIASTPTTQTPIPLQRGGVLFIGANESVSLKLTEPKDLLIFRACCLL

[9] = biological target: Phosphomannomutase 2 (Homo sapiens, UniProt O15305); test: Counter screen SAR assay for PMM2 inhibitors via a fluorescence intensity assay. [Related pubchem assays (depositor defined):AID1545, AID1574]
[10] = biological target: Intestinal-type alkaline phosphatase (Mus musculus, UniProt P24822); test: PubChem AID 488785; format: functional
[11] = biological target: T5, Alkaline phosphatase, tissue-nonspecific isozyme (Homo sapiens, UniProt P05186); test: TNAP enzyme inhibition by screening hits, dose response, selectivity assay for mouse IAP inhibitor project, biochemical, human TNAP, uHTS hits (AID 488906); format: functional
T5 sequence (P05186 whole entry): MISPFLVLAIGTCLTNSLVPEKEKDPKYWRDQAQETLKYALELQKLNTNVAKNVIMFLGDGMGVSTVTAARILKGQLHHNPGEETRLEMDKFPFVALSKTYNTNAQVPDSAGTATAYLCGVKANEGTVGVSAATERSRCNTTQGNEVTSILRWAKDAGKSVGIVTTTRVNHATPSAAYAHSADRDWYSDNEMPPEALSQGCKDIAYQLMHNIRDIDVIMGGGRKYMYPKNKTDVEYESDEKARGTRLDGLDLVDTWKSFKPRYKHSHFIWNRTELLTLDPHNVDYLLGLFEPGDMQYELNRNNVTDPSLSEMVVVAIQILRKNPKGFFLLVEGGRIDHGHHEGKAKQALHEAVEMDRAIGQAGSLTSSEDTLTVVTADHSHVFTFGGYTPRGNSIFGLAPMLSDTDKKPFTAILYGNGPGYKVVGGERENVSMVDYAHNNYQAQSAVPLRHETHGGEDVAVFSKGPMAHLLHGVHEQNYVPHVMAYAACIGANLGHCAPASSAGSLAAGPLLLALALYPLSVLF

[12] = biological target: Intestinal-type alkaline phosphatase (Homo sapiens, UniProt P09923); test: inhibition of human intestinal alkaline phosphatase – biochemical, dose response (AID 488876); format: functional
Intestinal-type alkaline phosphatase (Homo sapiens, UniProt P09923), sequence (P09923 whole entry): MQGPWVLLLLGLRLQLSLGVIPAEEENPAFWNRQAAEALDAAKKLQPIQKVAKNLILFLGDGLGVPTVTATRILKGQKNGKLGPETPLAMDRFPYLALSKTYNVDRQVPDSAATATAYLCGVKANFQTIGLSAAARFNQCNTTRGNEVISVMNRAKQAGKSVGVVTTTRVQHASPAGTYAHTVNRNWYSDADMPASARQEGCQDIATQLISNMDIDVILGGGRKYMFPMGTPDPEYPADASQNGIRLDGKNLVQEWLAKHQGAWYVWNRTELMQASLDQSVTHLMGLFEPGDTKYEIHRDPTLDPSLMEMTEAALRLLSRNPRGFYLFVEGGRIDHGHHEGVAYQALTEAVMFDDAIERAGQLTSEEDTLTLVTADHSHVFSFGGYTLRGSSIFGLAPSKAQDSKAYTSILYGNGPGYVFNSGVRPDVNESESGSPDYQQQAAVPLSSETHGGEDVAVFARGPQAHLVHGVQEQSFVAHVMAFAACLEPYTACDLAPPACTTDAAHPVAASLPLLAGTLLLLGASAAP

[13] = biological target: Tumor necrosis factor (Homo sapiens, UniProt P01375); test: analog potency on TNFa NF-kB signaling – cell-based, revised, SAR follow-up (AID 2337); format: functional
Tumor necrosis factor, sequence (P01375 whole entry, the tested form may be a part): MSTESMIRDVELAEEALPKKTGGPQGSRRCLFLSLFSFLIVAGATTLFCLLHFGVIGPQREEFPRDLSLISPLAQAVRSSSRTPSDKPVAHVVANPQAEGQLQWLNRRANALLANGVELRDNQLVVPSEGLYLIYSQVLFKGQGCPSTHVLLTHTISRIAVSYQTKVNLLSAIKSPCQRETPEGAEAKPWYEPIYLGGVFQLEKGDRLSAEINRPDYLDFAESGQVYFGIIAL

[14] = biological target: T6, Nucleotide-binding oligomerization domain-containing protein 1 (Homo sapiens, UniProt Q9Y239); test: blockers of NOD1 pathway activity – revised, SAR follow-up (AID 2333); format: functional
T6 sequence (Q9Y239 whole entry): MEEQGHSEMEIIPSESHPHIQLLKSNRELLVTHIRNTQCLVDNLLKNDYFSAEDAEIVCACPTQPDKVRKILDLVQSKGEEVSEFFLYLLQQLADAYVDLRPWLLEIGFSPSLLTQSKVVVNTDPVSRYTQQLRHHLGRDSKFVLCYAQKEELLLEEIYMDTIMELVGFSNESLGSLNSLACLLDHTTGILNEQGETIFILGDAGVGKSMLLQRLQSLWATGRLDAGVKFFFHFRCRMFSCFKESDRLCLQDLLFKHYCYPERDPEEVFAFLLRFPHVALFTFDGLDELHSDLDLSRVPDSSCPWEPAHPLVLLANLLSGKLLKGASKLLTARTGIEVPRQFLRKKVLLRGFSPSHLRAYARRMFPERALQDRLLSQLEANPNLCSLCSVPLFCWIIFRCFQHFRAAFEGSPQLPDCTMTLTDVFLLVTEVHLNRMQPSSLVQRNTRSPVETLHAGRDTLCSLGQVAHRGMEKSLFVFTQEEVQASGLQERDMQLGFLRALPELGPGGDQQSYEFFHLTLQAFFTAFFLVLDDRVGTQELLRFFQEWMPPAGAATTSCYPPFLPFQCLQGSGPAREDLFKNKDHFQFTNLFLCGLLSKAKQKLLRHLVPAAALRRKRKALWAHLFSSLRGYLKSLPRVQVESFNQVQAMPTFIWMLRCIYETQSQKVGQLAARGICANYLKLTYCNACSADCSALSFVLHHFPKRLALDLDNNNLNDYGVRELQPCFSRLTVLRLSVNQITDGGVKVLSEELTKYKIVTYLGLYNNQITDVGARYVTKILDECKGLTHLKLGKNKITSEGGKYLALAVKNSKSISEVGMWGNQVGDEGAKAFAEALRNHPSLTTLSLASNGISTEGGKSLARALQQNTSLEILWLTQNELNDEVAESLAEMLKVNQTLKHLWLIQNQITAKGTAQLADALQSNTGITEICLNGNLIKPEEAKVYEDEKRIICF

[15] = test system: HEK293; test: cells; settings: Homo sapiens;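 also: cells exposed to compound for 14 hours overnight before viability readout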
[16] = biological target: Potassium voltage-gated channel subfamily KQT member 2 (Rattus norvegicus, UniProt O88943); test: rat KCNQ2 current potentiators – automated patch clamp, KCNQ2-CHO cells, SAR follow-up (AID 493113); format: functional
[17] = biological target: CAAX prenyl protease 2 (Saccharomyces cerevisiae S288c, UniProt Q03530); format: biochemical
CAAX prenyl protease 2, sequence (Q03530 whole entry): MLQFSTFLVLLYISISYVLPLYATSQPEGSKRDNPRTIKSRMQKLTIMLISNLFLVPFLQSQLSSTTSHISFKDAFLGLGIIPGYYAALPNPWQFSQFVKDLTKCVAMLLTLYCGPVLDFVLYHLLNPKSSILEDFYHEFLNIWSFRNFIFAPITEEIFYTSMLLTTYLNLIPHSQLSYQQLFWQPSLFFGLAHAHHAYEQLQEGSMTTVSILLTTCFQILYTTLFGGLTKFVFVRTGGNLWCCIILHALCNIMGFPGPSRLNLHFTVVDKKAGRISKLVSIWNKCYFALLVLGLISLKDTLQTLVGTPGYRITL

[18] = biological target: CAAX prenyl protease 1 (Saccharomyces cerevisiae S288c, UniProt P47154); test: yeast CAAX protease Ste24 inhibition – biochemical, S. cerevisiae, plate reader, cherry-pick, dose response (AID 488815)

T1 sequence (P51452 whole entry): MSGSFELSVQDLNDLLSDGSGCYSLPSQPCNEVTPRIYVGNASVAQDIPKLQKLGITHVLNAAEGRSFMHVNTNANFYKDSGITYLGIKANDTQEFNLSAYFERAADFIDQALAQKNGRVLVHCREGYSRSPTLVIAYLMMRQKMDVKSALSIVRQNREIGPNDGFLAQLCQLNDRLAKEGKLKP

## COc1ccc(Cl)cc1N(C(=O)c1ccco1)C(C(=O)NC1CCCC1)c1ccncc1 (stereo not drawn)
[1]
  AC50: 104 µM (active)

## CCOC(=O)C1=C(C)N=c2s/c(=C\c3ccc(OCC(=O)O)cc3)c(=O)n2C1c1ccc(Cl)cc1 (stereo not drawn)
[2]
  IC50: 11.3 µM (active)
[3]
  IC50: 33.7 µM (active)
[4]
  IC50: > 20 µM (inactive)
[5]
  IC50: > 50 µM (inactive)
[6]
  IC50: 8.8 µM (active)
[7]
  IC50: > 158 µM (not active)

## FC(F)(F)Oc1cccc(/N=c2\ssnc2Cl)c1
[8]
  IC50: 27.5 µM (active)
[9]
  IC50: > 100 µM (inactive)

## Cc1cc(Cn2nc(-c3ccccc3)cc2C(=O)NCc2cccc(C(F)(F)F)c2)on1
[10]
  IC50: 3.4 µM (active)
[11]
  IC50: 31 µM (active)
[12]
  IC50: > 100 µM (inactive)

## Cc1ccc([N+](=O)[O-])cc1NC(=O)c1cc(Cl)c2ccccc2c1O
[13]
  IC50: 0.206 µM (active)
[14]
  IC50: 0.17 µM (active)
[15]
  IC50: 1.17 µM (active)

## Cc1cc(C)c(NC(=O)CCc2ccccc2)c(C)c1
[16]
  EC50: 1.6 µM (active)

## CCOc1cccc(-c2c(C(=O)N/N=C/c3c(F)cccc3Cl)nnn2-c2nonc2N)c1
[17]
  AC50: 9 µM (active)
[18]
  AC50: > 100 µM (inactive)
